Experimental data reported in US20240226232A9, “PROTEIN-BASED THERAPIES FOR OCULAR CONDITIONS” (The Regents of the University of Colorado, A Body Corporate, priority 2021, published 2024).

What was measured:
[1] = system: retinal capillary cells; experiment: I/R injury mouse model, acellular retinal capillary count; format: in vivo, C57BL/6J mice; conditions: 0.5 μg intravitreal immediately after I/R injury and again after one week; day 14
Description: This ocular hypertension model was generated by initially anesthetizing 12-week-old C57BL/6J mice via intraperitoneal injection of ketamine/xylazine supplemented with a topical application of 0.5% proparacaine hydrochloride. To perform the I/R injury, the right eye was cannulated into the anterior chamber with a 33-gauge needle connected to an elevated pouch containing 250 ml of 0.9% NaCl solution. […] The PBS-injected eyes were used as vehicle controls. The contralateral eyes were used as additional controls.
After careful removal of the internal limiting membrane (ILM), retinas were placed in 12-well plates with Tris-HCl buffer at a pH of 7.8, and then shaken overnight to loosen the remaining RGCs. The retinas were then transferred to glass microscopy slides and the remaining neuronal tissues carefully dislodged through gentle agitation produced by a 20-μL pipette in Tris-HCl. Periodic acid Schiff (PAS) stain was used to visualize the isolated retinal capillary layer. An inverted fluorescence microscope was used to image the mounted capillaries, and the acellular capillaries from each treatment group were counted and analyzed.

[2] = system: RGCs; experiment: Silicone oil mouse model of ocular hypertension, Brn3a-positive RGC count after intravitreal peptide; format: in vivo, mice; conditions: single 1 μg intravitreal dose, day 28
Excerpt: The second ocular hypertension model was generated by anesthetizing mice via intraperitoneal injection of ketamine/xylazine supplemented with topical application of 0.5% proparacaine hydrochloride. A 33G needle was tunneled through the cornea of each tested eye at the superotemporal side close to the limbus to reach the anterior chamber without injuring the lens or iris. […] After the injection, the upper eyelid was gently massaged to close the corneal incision and minimize oil leakage, and veterinary antibiotic ointment was applied to the surface of the injected eye to prevent infection.
After two weeks, the silicone oil droplet was removed. […] Veterinary antibiotic ointment was applied to the surface of the eye after oil removal.
The intraocular pressure of each eye was monitored once weekly until four weeks after silicone oil injection using a tonometer under anesthesia with a sustained flow of isoflurane (5% isoflurane at 2 L/minute mixed with oxygen). Two weeks after oil removal (day 28), retinas were removed and immunostained with Brn3a and βIII-tubulin antibodies to visualize and count the surviving RGCs.

[3] = system: IL-1β; experiment: I/R injury mouse model, retinal cytokine mRNA by quantitative real-time PCR; format: in vivo, mice; conditions: two days after I/R injury; 0.5 μg intravitreal
Description: (§1) To measure pro-inflammatory cytokine levels, mice were sacrificed, and retinas were dissected two days after I/R injury. Total RNA was then lysed from the retinas, two micrograms of RNA was reverse-transcribed to synthesize cDNA, and quantitative real-time PCR was performed. The sequences of the PCR primers were as follows: TNF-α forward primer—5′-[…]-3′ and reverse primer—[…]-3′; IL-1β forward primer—5′-5′-[…]-3′ and reverse primer—5′-[…]-3; IFN-γ forward primer—5′-[…]-3′ and reverse primer—5′-[…]-3′. The mRNA levels were analyzed using the comparative Ct method (2-ΔΔCT) and then normalized to β-actin (forward primer—5′-[…]-3′ and reverse primer—5′-[…]-3′).

[4] = system: TNF-α; experiment: as above; format: in vivo, mice; conditions: two days after I/R injury; 0.5 μg intravitreal
Description: as §1

[5] = system: RGCs; experiment: Microbead mouse model of ocular hypertension, Brn3a-positive RGC count and βIII-tubulin staining after intravitreal peptide; format: in vivo, mice; conditions: 1 μg intravitreal once weekly for three weeks; for RGCs per mm^2 in retina after six weeks: control almost 3,400, vehicle less than 2,300
Description: The first ocular hypertension model was generated by initially anesthetizing mice via intraperitoneal injection of ketamine/xylazine supplemented with a topical application of 0.5% proparacaine hydrochloride. […] The cornea was gently punctured near the center using a 33G needle, and a small air bubble was injected to lift the anterior chamber of the eye. […] An antibiotic ointment was applied topically on the injected eye to prevent infection.
The intraocular pressure was measured weekly for six weeks using a tonometer. In particular, the mice were placed in an anesthetic chamber filled with a sustained flow of isoflurane (5% isoflurane at 2 L/minute mixed with oxygen). The tonometer took five measurements for each weekly check-in, eliminated the high and low readings, and generated an average intraocular pressure from the remaining readings for each mouse.
After six weeks of microbead injection, the eyes were dissected out and post-fixed with 4% PFA overnight at 4° C. The retinas were subsequently dissected out and washed three times in PBS before blocking (5% normal donkey serum and 1% Triton X-100 in PBS) overnight. Whole-mount retinas were then immunostained for Brn3a and βIII-tubulin (1:500 dilution), which are markers for RGCs and axonal cells, respectively. The retinas were then stained with Alexa Fluor 488 donkey anti-mouse or Texas red-conjugated goat anti-rabbit IgG (1:250 dilution). Four image fields from each retinal region were obtained using a 20× lens with a Zeiss confocal. The Brn3a-positive RGC numbers were counted (cells/mm^2) in the mid-peripheral regions from four quadrants of the whole-mounted retina using the ImageJ software (NIH). Contralateral uninjured eyes were used as a control.

[6] = system: Human retinal endothelial cells (HRECs); experiment: Pro-inflammatory cytokine-mediated apoptosis of HRECs, cleaved caspase-3 Western blot; format: cell-based; conditions: 200 μg/mL peptide for three hours, then cytokine mixture (CM) 48 hours, CM only approx. 1:1
Description: The sequence of the first scrambled control peptide was […] (SEQ ID NO: 4), and the sequence of the second scrambled control peptide was […] (SEQ ID NO: 5). All test cells were then treated with a combination of pro-inflammatory cytokines (IFN-γ at 50 U/mL+TNF-α at 20 ng/mL+IL-1β at 20 ng/mL) for 48 hours.
Cell lysates were prepared using 1×RIPA buffer containing a protease inhibitor cocktail. Protein concentrations of the cell lysates were measured using the BCA method, and 25 μg of protein were used for immunoblotting. To measure HREC apoptosis, the cells were immunostained for active (cleaved) caspase-3, specifically, which is a marker for apoptosis. β-actin antibody staining was used as a control for measuring levels of a housekeeping protein and for calculating protein density compared to caspase-3 levels.

Substance | number of acellular capillaries per retina [1] | RGC death reduced by (compared to PBS-treated control 206) [2] | reduction of the increase in IL-1β expression compared to the vehicle group [3] | reduction of the increase in TNF-α expression compared to the vehicle group [4] | axonal degeneration (βIII-tubulin immunostaining) [5] | reduction in RGC death (compared to vehicle control group) [5] | RGCs per mm^2 in retina after six weeks [5] | density ratio of cleaved caspase-3 to β-actin [6]
DRFSVNLDVKHFSPEELKVKV [peptain-1] | lower number of per-retina acellular capillaries | 15.7% | 4.6 fold | 6.2 fold | inhibited axonal degeneration | 4% | over 3,200 RGCs per mm^2 | ~0.5
FEPSVRFSKVDHLVKENDLVK [Scr-2] |  |  |  |  |  |  |  | greater density ratio
G^73HFSVLLDVK(acetyl)HFSPEEIAVK^91 [peptain-3a] |  | 14.2% |  |  | inhibited axonal degeneration | 12% | about 3,000 RGCs per mm^2 | 
SLKEKRNFDVSEVKHVLFVDP [Scr-1] |  |  |  |  |  |  |  | greater density ratio
